This is an account of results in ChEMBL document CHEMBL3045592, “Studies of O,O-dimethyl α-(2,4-dichlorophenoxyacetoxy)ethylphosphonate (HW02) as a new herbicide. 1. Synthesis and herbicidal activity of HW02 and analogues as novel inhibitors of pyruvate dehydrogenase complex” (J Agric Food Chem, 2011).

Assay [1] has as its system Cucumis sativus. In words: Herbicidal activity against Cucumis sativus Jin 4 (cucumber) assessed as inhibition of stem growth after 3 days. It is filed as functional, organism-based. To be noted: Jin 4, 72 h.
For assay [2], the system named is Cucumis sativus. In words: Herbicidal activity against Cucumis sativus Jin 4 (cucumber) assessed as inhibition of root growth after 3 days. The note with it: Jin 4, 72 h. Type of assay: functional, organism-based.
The subject of assay [3] is Echinochloa crus-galli. In words: Pre-emergence herbicidal activity against Echinochloa crus-galli (barnyard grass) assessed as growth inhibition at 1500 ai g/ha after 20 days by green house test. It is filed as functional.
The test system of assay [4] is Medicago sativa. As to the kind of experiment: Post-emergence herbicidal activity against Medicago sativa (alfalfa) assessed as growth inhibition at 1500 ai g/ha after 20 days by green house test. Type of assay: functional.
Assay [5] deals with Digitaria sanguinalis. As to the kind of experiment: Pre-emergence herbicidal activity against Digitaria sanguinalis (hairy crabgrass) assessed as growth inhibition at 1500 ai g/ha after 20 days by green house test. It is filed as functional.
Assay [6] has as its system Digitaria sanguinalis. As to the kind of experiment: Post-emergence herbicidal activity against Digitaria sanguinalis (hairy crabgrass) assessed as growth inhibition at 1500 ai g/ha after 20 days by green house test. It is filed as functional.
Assay [7] has as its system Amaranthus retroflexus. As to the kind of experiment: Post-emergence herbicidal activity against Amaranthus retroflexus assessed as growth inhibition at 1500 ai g/ha after 20 days by green house test. Type of assay: functional.
Assay [8] concerns Brassica rapa subsp. oleifera. In words: Post-emergence herbicidal activity against Brassica rapa subsp. oleifera Si Yue Man assessed as growth inhibition at 1500 ai g/ha after 20 days by green house test. It is filed as functional.
Assay [9] has as its system Medicago sativa. In words: Pre-emergence herbicidal activity against Medicago sativa (alfalfa) assessed as growth inhibition at 1500 ai g/ha after 20 days by green house test. Type of assay: functional.
The subject of assay [10] is Brassica rapa subsp. oleifera. As to the kind of experiment: Pre-emergence herbicidal activity against Brassica rapa subsp. oleifera Si Yue Man assessed as growth inhibition at 1500 ai g/ha after 20 days by green house test. Type of assay: functional.
In assay [11] the test system is Amaranthus retroflexus. As to the kind of experiment: Pre-emergence herbicidal activity against Amaranthus retroflexus assessed as growth inhibition at 1500 ai g/ha after 20 days by green house test. It is filed as functional.
For assay [12], the system named is Echinochloa crus-galli. As to the kind of experiment: Post-emergence herbicidal activity against Echinochloa crus-galli (barnyard grass) assessed as growth inhibition at 1500 ai g/ha after 20 days by green house test. It is filed as functional.
Assay [13] has as its system Chenopodium album. As to the kind of experiment: Pre-emergence herbicidal activity against Chenopodium album assessed as growth inhibition at 450 ai g/ha after 20 days by green house test. It is filed as functional.
In assay [14] the test system is Amaranthus spinosus. As to the kind of experiment: Pre-emergence herbicidal activity against Amaranthus spinosus assessed as growth inhibition at 450 ai g/ha after 20 days by green house test. Type of assay: functional.
Assay [15] deals with Amaranthus spinosus. In words: Post-emergence herbicidal activity against Amaranthus spinosus assessed as growth inhibition at 150 ai g/ha after 20 days by green house test. Type of assay: functional.
Assay [16] concerns Digitaria sanguinalis. As to the kind of experiment: Post-emergence herbicidal activity against Digitaria sanguinalis (hairy crabgrass) assessed as growth inhibition at 450 ai g/ha after 20 days by green house test. Type of assay: functional.
The subject of assay [17] is Setaria viridis. In words: Pre-emergence herbicidal activity against Setaria viridis (green foxtail) assessed as growth inhibition at 450 ai g/ha after 20 days by green house test. It is filed as functional.
In assay [18] the test system is Abutilon theophrasti. In words: Post-emergence herbicidal activity against Abutilon theophrasti (velvetleaf) assessed as growth inhibition at 450 ai g/ha after 20 days by green house test. It is filed as functional.
For assay [19], the system named is Digitaria sanguinalis. In words: Pre-emergence herbicidal activity against Digitaria sanguinalis (hairy crabgrass) assessed as growth inhibition at 450 ai g/ha after 20 days by green house test. Type of assay: functional.
Assay [20] deals with Abutilon theophrasti. In words: Post-emergence herbicidal activity against Abutilon theophrasti (velvetleaf) assessed as growth inhibition at 150 ai g/ha after 20 days by green house test. Type of assay: functional.
For assay [21], the system named is Setaria viridis. As to the kind of experiment: Post-emergence herbicidal activity against Setaria viridis (green foxtail) assessed as growth inhibition at 450 ai g/ha after 20 days by green house test. It is filed as functional.
Assay [22] deals with Amaranthus spinosus. In words: Pre-emergence herbicidal activity against Amaranthus spinosus assessed as growth inhibition at 150 ai g/ha after 20 days by green house test. Type of assay: functional.
The test system of assay [23] is Setaria viridis. As to the kind of experiment: Post-emergence herbicidal activity against Setaria viridis (green foxtail) assessed as growth inhibition at 150 ai g/ha after 20 days by green house test. Type of assay: functional.
Assay [24] relates to Abutilon theophrasti. As to the kind of experiment: Pre-emergence herbicidal activity against Abutilon theophrasti (velvetleaf) assessed as growth inhibition at 150 ai g/ha after 20 days by green house test. It is filed as functional.
For assay [25], the system named is Chenopodium album. In words: Post-emergence herbicidal activity against Chenopodium album assessed as growth inhibition at 150 ai g/ha after 20 days by green house test. Type of assay: functional.
Assay [26] has as its system Amaranthus spinosus. As to the kind of experiment: Post-emergence herbicidal activity against Amaranthus spinosus assessed as growth inhibition at 450 ai g/ha after 20 days by green house test. It is filed as functional.
Assay [27] deals with Chenopodium album. In words: Post-emergence herbicidal activity against Chenopodium album assessed as growth inhibition at 450 ai g/ha after 20 days by green house test. Type of assay: functional.
For assay [28], the system named is Digitaria sanguinalis. In words: Post-emergence herbicidal activity against Digitaria sanguinalis (hairy crabgrass) assessed as growth inhibition at 150 ai g/ha after 20 days by green house test. It is filed as functional.
Assay [29] concerns Chenopodium album. In words: Pre-emergence herbicidal activity against Chenopodium album assessed as growth inhibition at 150 ai g/ha after 20 days by green house test. Type of assay: functional.
Assay [30] deals with Setaria viridis. As to the kind of experiment: Pre-emergence herbicidal activity against Setaria viridis (green foxtail) assessed as growth inhibition at 150 ai g/ha after 20 days by green house test. Type of assay: functional.
For assay [31], the system named is Abutilon theophrasti. As to the kind of experiment: Pre-emergence herbicidal activity against Abutilon theophrasti (velvetleaf) assessed as growth inhibition at 450 ai g/ha after 20 days by green house test. It is filed as functional.
In assay [32] the test system is Digitaria sanguinalis. In words: Pre-emergence herbicidal activity against Digitaria sanguinalis (hairy crabgrass) assessed as growth inhibition at 150 ai g/ha after 20 days by green house test. It is filed as functional.

Each structure is given as a SMILES string. pIC50: −log10 of the molar value.

As a reminder, the pIC50 is the negative decadic logarithm of the IC50, by convention in mol/L. Regarding `COP(=O)(OC)C(C)OC(=O)C(C)Oc1ccc(Cl)cc1Cl` (centres undefined), the results for the negative logarithm of the IC50 (pIC50) in assay [1] and in assay [2] were 5.17 and 5.85, respectively.
Turning to `CCC(OC(=O)COc1ccc(Cl)cc1Cl)P(=O)(OC)OC` (centres undefined), the “growth inhibition (GI)” value in [3] amounted to 75%; in assay [4], 90%; in assay [5] it was 75%; in [6], 50%; in [7], 90%; in assay [8] it was 90%. Further, the “growth inhibition (GI)” value in assay [9] turned out to be 90%; in assay [10] it was 90%; in assay [11], 90%; in assay [12], 50%. Further, the values for the pIC50 in [1] and in assay [2] were 4.85 and 6.49, respectively.
In the case of `CCOP(=O)(OCC)C(OC(=O)COc1ccc(Cl)cc1Cl)c1ccccc1` (centres undefined), the pIC50 in assay [1] was 3.96; in assay [2], 7.31.
`CCOP(=O)(COC(=O)COc1ccc(Cl)cc1Cl)OCC`: in assay [1], the pIC50 was 4.87.
Take `CCCOP(=O)(OCCC)C(OC(=O)C(C)Oc1ccc(Cl)cc1Cl)c1ccccc1` (centres undefined): the pIC50 in assay [1] was 4.35; in assay [2] it was 5.34.
For `CCOP(=O)(OCC)C(CC)OC(=O)COc1ccc(Cl)cc1Cl` (centres undefined), in that order: 4.59 and 6.51.
For `CCCOP(=O)(OCCC)C(C)OC(=O)C(C)Oc1ccc(Cl)cc1Cl` (centres undefined), in that order: 4.74 and 5.61.
In the case of `CCOP(=O)(OCC)C(C)OC(=O)C(C)Oc1ccc(Cl)cc1Cl` (centres undefined), the pIC50 in [2] was 5.97.
Consider `COP(=O)(OC)C(OC(=O)C(C)Oc1ccc(Cl)cc1Cl)c1ccccc1` (centres undefined), for which the pIC50 in [1] is 4.52.
Turning to `CCOP(=O)(OCC)C(OC(=O)COc1ccc(Cl)cc1Cl)c1ccccc1Cl` (centres undefined), the pIC50 in assay [2] was 5.83.
Consider `CCCC(OC(=O)C(C)Oc1ccc(Cl)cc1Cl)P(=O)(OC)OC` (centres undefined), for which the pIC50 was 4.86 in [1] and 5.53 in [2].
For `CCCC(OC(=O)COc1ccc(Cl)cc1Cl)P(=O)(OC)OC` (centres undefined), in that order: 5.03 and 8.12.
Regarding `COP(=O)(OC)C(OC(=O)COc1ccccc1[N+](=O)[O-])c1ccccc1` (centres undefined), the “growth inhibition (GI)” value in assay [3], in assay [4], in assay [5], in [6], in assay [7] and in [8] was “<=50%” in each case. For the same molecule, the “growth inhibition (GI)” value in [9], in assay [10], in assay [11] and in [12] was “<=50%” throughout.
In the case of `CCCOP(=O)(OCCC)C(OC(=O)C(C)Oc1ccc(Cl)cc1Cl)c1ccccc1Cl` (centres undefined), the pIC50 in assay [1] is 3.79; in assay [2], 4.92.
Turning to `COP(=O)(OC)C(C)OC(=O)COc1ccc(Cl)cc1C` (centres undefined), the “growth inhibition (GI)” value in assay [13] stood at 0%; in assay [3], 90%; in assay [4], 50%; in assay [5], 90%; in assay [14], 30%; in assay [6], 50%. The “growth inhibition (GI)” value was determined as 10% in [15]; 10% in assay [16]; 0% in [17]; 96% in assay [18]; 16% in [19]; 82% in assay [20]. Moreover, the “growth inhibition (GI)” value is 0% in assay [21]; 0% in assay [22]; 0% in assay [23]; 0% in [24]; 60% in assay [25]; 100% in assay [26]. In addition, the “growth inhibition (GI)” value in assay [27] came out at 80%; in assay [7], 90%; in assay [28] it was 0%; in assay [8] it was 90%; in assay [29], 0%; in [30] it was 0%. Besides, the “growth inhibition (GI)” value in assay [9] was found to be 90%; in [31] it was 0%; in assay [10] it was 90%; in assay [32] it was 0%; in assay [11], 90%; in assay [12], 50%.
`COP(=O)(OC)C(OC(=O)COc1ccc(Cl)cc1Cl)c1cccc([N+](=O)[O-])c1` (centres undefined): the “growth inhibition (GI)” value in assay [3] is on record as 50%; in [4] it was 90%; in assay [5], “<=50%”; in assay [6] it was “<=50%”; in assay [7], 90%; in [8], 90%. In addition, the “growth inhibition (GI)” value is reported as 90% in [9], 90% in assay [10], 90% in [11] and “<=50%” in assay [12]. Besides, the pIC50 in assay [1] is 5.30; in [2], 8.47.
